Several values for one entry are separate records, joined by “and”; a condition that tells them apart may be missing. Equal entries are not always repeated.
Experiments:
[1] = Size exclusion chromatography (SEC), self-assembly; format: physicochemical; conditions: Superdex200 Increase 10/300; independent of initial concentration
Description: SUPPORTING INFORMATION: Method Section.
Sex as a biological variable.
All peptides were ordered from WuXI AppTec (Shanghai, China) or TAG-Copenhagen […]
Protein expression and purification.
Full length rat PICK1 (pET41) was, as described earlier (1), expressed in BL21-DE3-pLysS and grown at 37 °C, induced at OD600= 0.6 with 1 mM IPTG, and grown for 16 hours at 20 °C.
Cultures were harvested and re-suspended in 50 mM Tris, 125 mM NaCl, 2 mM DTT (Sigma), 1% Triton X-100 (Sigma), 20 µg/mL DNAse 1 and half a tablet of cOmplete protease inhibitor cocktail (Roche) pr. 1 L culture. The resuspended pellets were frozen at -80 °C for later purification. The lysate was cleared by centrifugation (36,000 x g for 30 min at 4 °C), and the supernatant was incubated with Glutathione-Sepharose 4B beads (GE Healthcare) for two hours at 4 °C under gentle rotation and then centrifuged at 4000 x g for 5 min. The supernatant was removed, and the beads were washed twice in 35 mL 50 mM Tris, 125 mM NaCl, 2 mM DTT, and 0.01% Triton-X100. The beads were transferred to PD-10 Bio-Spin® Chromatography columns (Bio-Rad) and washed with an additional 3 column volumes. Each column was sealed and 0.075 U/µL, Novagen® was added for cleavage O/N at 4 °C under gentle rotation. PICK1 was eluted on ice and concentration was measured on a NanoDrop 3000. […]
Size Exclusion Chromatography (SEC). […]

[2] = Plasma exposure after repeated s.c. administration (10 + 2 + 2 + 2 + 2 μmol/kg), LC-MS/MS; format: in vivo, mouse; conditions: for Plasma exposure, Fig 7B, individual mice: 10µmol/kg repeated
Description: Assessment of plasma levels and biodistribution of mPD5.
The mPD5 plasma exposure was determined by (WuXI AppTec (Shanghai, China)) and done following s.c. injection of three male C57BL/6N (vendor: VTLH) mice (7-9 weeks old, fasted) with each concentration of mPD5 (2, 10 and 50 µmol/kg) in sterile PBS. Blood samples were taken 30 min, 1 hour, 2 hours, 5 hours, and 12 hours following injection. For the repeated administration experiment, the initial s.c. injection of 10 µmol/kg was followed by 4 s.c. administrations of 2 µmol/kg with one hour between injections. Following the last injection, blood samples (0.03 mL from saphenous vein or other suitable site) were collected in EDTA- […]
K2 tubes at 5 min, 30 min, 1 hour, 5 hours, 12 hours, 24 hours, and 48 hours and centrifuged (app 4 ℃, 3200 g, 10 min) for collection of plasma. Plasma was transferred to 96 well plates and quick-frozen over dry ice and kept at -60 ℃ until LC-MS/MS analysis. For LC-MS/MS analysis plasma with 0.25% Triton X100 in 50% MeOH/water (6 µL) was quenched with 160 µL of IS1 (internal standard in MeOH (Labetalol & tolbutamide & Verapamil & dexamethasone & glyburide & Celecoxib 100 ng/mL for each)) and the mixture was vortexed for 10 min at 800 rpm and centrifuged for 15 min at 3220 × g at 4 ℃. An aliquot of 65 µL supernatant was transferred to a clean 96-well plate and centrifuged for 5 min at 3220 × g at 4 ℃, then the supernatant was directly injected for LC-MS/MS analysis. Plasma half-lives were determined from three points in the elimination phase. […]

[3] = tested on: naive mice; test: Single exposure place preference (sePP), naive mice; format: in vivo, mouse
Description: On days 6-8, the escape hole was moved
90 degrees, and all mice went through the second bout of training. On day nine, a second probe trial was performed testing the reversal learning of the mice.
Cancer induced bone pain was induced as described in the “Induction of cancer induced bone pain (CIBP model)"-section. For the assessment of limb use, all mice from one cage were placed in an empty transparent plastic box and left for ten min to habituate. One mouse at a time was moved by tunnel handling or scooping to an identical plastic box for the limb use test. […]
gait, 3 Insignificant limping, 2 Significant limping and shift in bodyweight towards the healthy limb 1 Significant limping and partial lack of use of ipsilateral leg 0 Total lack of use of ipsilateral leg. A score of 0 was used as a humane endpoint. Urine and faeces were cleaned from the plastic box with a dry paper towel between mice from the same cage, and a new plastic box was used for mice from different cages. The limb use test was video filmed for later […]
Assessment of static weight bearing. […]
Initial perception of the drugs was measured by single exposure place preference experiments performed in an elongated three compartment apparatus (67.5 cm x 24 cm) with a biased design of different floor textures and wall patterns and a neutral zone in the middle. […]

## CCCCCCCCCCCCCC(=O)N(CCOCCOCCC(=O)N[C@@H](Cc1c[nH]cn1)C(=O)N[C@@H](Cc1c[nH]c2ccccc12)C(=O)N[C@@H](CC(C)C)C(=O)N[C@@H](CCCCN)C(=O)N[C@H](C(=O)O)C(C)C)CCOCCOCCC(=O)N[C@@H](Cc1c[nH]cn1)C(=O)N[C@@H](Cc1c[nH]c2ccccc12)C(=O)N[C@@H](CC(C)C)C(=O)N[C@@H](CCCCN)C(=O)N[C@H](C(=O)O)C(C)C [mPD5, myristoyl-NPEG4-(HWLKV)2]
[1]
  SEC elution volume: approximately 14.2 mL
[2]; time 0.5
  Plasma exposure, Fig 7B, individual mice: 3149 and 2827 and 2358
[2]; time 1
  Plasma exposure, Fig 7B, individual mice: 3071 and 3116 and 2251
[2]; time 5
  Plasma exposure, Fig 7B, individual mice: 8.66 and 8.95 and 4.61
[2]; C57BL/6N, mouse, plasma, sc, s.c. 10 μmol/kg followed by 4 x 2 μmol/kg in 1-hour intervals
  half-life: 31.2 ± 1.2 min
[3]; naive mice conditioned with 30 μmol/kg
  time spent in the paired compartment, individual mice: 310.53 and 374.063 and 737.926 and 573.794 and 360.996 and 424.662 and 697.46
[3]; naive mice, 30 μmol/kg
  preference compared to PBS (intrinsic rewarding properties, sePP): did not show any preference

From paper PMC11530130, “Peripherally restricted PICK1 inhibitor mPD5 ameliorates pain behaviors in murine inflammatory and neuropathic pain models” (JCI Insight, 2024)
